Assay: gradient 5% acetonitrile 3 min, to 50% in 2 min, to 85% in 15 min, held 3 min, 100 µL/min
Conditions: column: Zorbax Extend-C18 2.1 x 50 mm; eluents: water / acetonitrile, 0.1% formic acid
In short: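 Standards, all pure, were combined into mixtures of ~100 molecules and run at 100 μL/min on a Zorbax Extend-C18 column (2.1 × 50 mm, 1.8 μm) with water and acetonitrile, each containing 0.1% formic acid. A coupled quadrupole time-of-flight mass spectrometer operated in positive and negative ionization mode. Retention time values come from computationally picked adduct peaks, each inspected manually.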

RP-LC retention time [s] | Structure (SMILES)
990 | COc1ccc(-c2nnc(-c3ccc(OC)c(S(=O)(=O)N4CCC(C)CC4)c3)o2)cc1OC
1370 | CCOC(=O)C1CCN(c2cc(-c3nc(-c4ccccc4)no3)c3ccccc3n2)CC1
724 | COCCN1C(=O)CCc2cc(NS(=O)(=O)c3cc(OC)ccc3OC)ccc21
748 | Cc1ccc2nc(C(=O)N3CCN(c4ccccc4Cl)CC3)cn2c1
642 | COc1ccc(CCNC(=O)c2ccco2)cc1OC
900 | CCOC(=O)c1cccc(NC(=O)CN2C(=O)C(C)(C)c3ccccc32)c1
1160 | Cc1ccc(C)c(NC(=O)Cn2nc(N3CCCC(C)C3)c3ccccc3c2=O)c1 (configuration not stated)
1230 | Cc1ccc(NS(=O)(=O)c2cc(-c3cc(C(F)(F)F)on3)sc2C)c(C)c1
709 | CCn1c(=O)n(CCN2CCOCC2)c(=O)c2cnc(-c3ccc(Cl)cc3)nc21
823 | Cc1ccc(CNC(=O)c2cc3n(n2)CC(C)(C(=O)NCc2ccc(C)cc2)N(C)C3=O)cc1 (configuration not stated)
1070 | COc1ccc(-c2nc(Cc3noc(-c4ccccc4OC)n3)c(C)o2)cc1
747 | CC(=O)Nc1nc2ccc(CC(=O)NCCc3c[nH]c4ccc(Cl)cc34)cc2s1
632 | CCOC(=O)N1CCN(C(=O)CSc2ccc(-c3sc(C)nc3C)nn2)CC1
857 | O=C(CN1CCN(Cc2ccccc2F)C1=O)N1CCN(c2ccccc2F)CC1
998 | C#CCSc1nc2ccccc2c2nc(-c3cccnc3)nn12
1060 | COC(=O)c1ccc(NC(=O)CSc2nnc3c4cc(-c5ccccc5)nn4ccn23)cc1
652 | COc1cccc(NC(=O)C2CCN(c3cc(N4CCCC4)ncn3)CC2)c1
858 | CCCn1cc(C2=CCN(C(=O)Nc3ccc(OC)cc3)CC2)c2cccnc21
554 | CCN1CCN(CCCNC(=O)C2CCCN(c3nn4c(=O)c5c(nc4s3)CCCC5)C2)CC1 (configuration not stated)
796 | CN1C(=O)c2cccnc2Sc2cc(NC(=O)c3ccc(F)cc3Cl)ccc21
910 | Cc1ccc(S(=O)(=O)CCc2nc(-c3cccc(-c4ccnn4C)c3)no2)cc1
1090 | CC(NC(=O)C1CCCN(C(=O)c2cc3sccc3n2C)C1)C12CC3CC(CC(C3)C1)C2 (configuration not stated)
961 | CCc1ccc(CNC(=O)c2cn(C)nc2S(=O)(=O)N2CCSCC2)cc1
860 | Cc1c(Cl)cccc1NC(=O)C(C)C1CCN(C(=O)Nc2ccccc2)CC1 (configuration not stated)

RP-LC retention time [s] | Structure (SMILES)
660 | CC(C)Oc1ccc(C(=O)Nc2nc(-c3cccnc3)cs2)cc1
623 | CC(=O)OCCNc1nc(-c2ccccc2)nc2ccccc12
1120 | CCOc1ccccc1NS(=O)(=O)c1cc(-c2cc(C(F)(F)F)on2)sc1C
1050 | O=C(Nc1ccc(F)c(F)c1)C1CCCN(c2nc3ccsc3c(=O)n2Cc2ccc(F)cc2)C1 (configuration not stated)
1150 | O=C(NOCC1CC1)c1ccc(F)c(F)c1Nc1ccc(I)cc1Cl
741 | O=C(Cc1nnc2cc(-c3nc(C4CC4)no3)ccn12)NC1CCCCCC1
984 | CCc1nc(-c2csc(S(=O)(=O)N3CCC(C(=O)Nc4cccc(Cl)c4C)CC3)c2)no1
849 | O=C(Cc1ccc([N+](=O)[O-])cc1)NCc1ccc2[nH]c3c(c2c1)CCCC3
623 | CC1(C)CC(NC(=O)COc2ccc(Cl)cc2)CC(C)(C)N1
919 | Cc1ccc(-n2c(N3CCCC(C(=O)NCc4ccc(F)cc4)C3)nc3ccsc3c2=O)cc1 (configuration not stated)
686 | Cc1cnc(-c2ccccc2)n1C1CCN(S(=O)(=O)Cc2ccccc2)CC1
572 | CN1CCN(C(=O)c2cc3n(n2)CC(C)(C(=O)NCc2ccccc2)N(C)C3=O)CC1 (configuration not stated)
616 | Cc1nnc2n1CCN(C(=O)Cc1c(F)cccc1Cl)C2
832 | CCCN(CC1CCOC1)C(=O)Nc1ccccc1Br (configuration not stated)
907 | CC1CCN(C(=O)C2=CN(c3ccc(F)cc3)c3ccccc3S2(=O)=O)CC1
1010 | Cc1ccc([N+](=O)[O-])cc1NC(=O)Nc1cccc(F)c1
580 | O=C(c1ccc(CS(=O)c2ccc(Br)cc2)o1)N1CCN(c2ccccn2)CC1 (configuration not stated)
751 | Cn1c(=O)c2nc(SCCC(=O)Nc3cc(F)cc(F)c3)n(C)c2n(C)c1=O
1190 | COC(=O)c1ccc(NS(=O)(=O)c2cccc(-c3nc(-c4ccc(C)cc4)no3)c2)cc1
1170 | CC1CCN(C(=O)C2CCN(c3nc4ccc(-c5ccccc5F)nc4s3)CC2)CC1
765 | CSc1cccc(NC(=O)Cn2c(N3CCC(C)CC3)nc(C)cc2=O)c1
596 | O=C(CSc1nnc(-c2ccncc2)o1)NCc1ccc2c(c1)OCO2
1110 | COc1ccc(-n2ncc3c(=O)n(Cc4nc(-c5cccc(Br)c5)no4)cnc32)cc1
705 | O=C(NCc1ccco1)C(=O)NCC1OCCN1C(=O)c1ccc(Cl)cc1 (configuration not stated)

Further lines, the compound ahead of its results:

Structure (SMILES) | RP-LC retention time [s]
Cc1ccc(NC(=O)Nc2c(-c3ccc(F)cc3)nc3ccccn23)cc1 | 692
COc1cccc(CNC(=O)c2cc3ccncc3n2C)c1OC | 602
O=C(Nc1ccncc1)c1cc([N+](=O)[O-])ccc1Cl | 638
O=C(Cc1nnc(-c2ccc3ncccc3c2)o1)Nc1ccc(C(F)(F)F)cc1 | 827
N#Cc1ccc(C(=O)N2CC(n3cc(C(=O)NCC4CC4)nn3)C2)cc1 | 701
Cc1ccc(F)cc1S(=O)(=O)N1CCN(c2nc3ccncc3n(C)c2=O)CC1 | 586
CN1C(=O)c2cccc(NC(=O)c3ccc(S(=O)(=O)N4CCOCC4)cc3)c2C1=O | 813
Cc1ccn2cc(-c3ccc(NC(=O)c4ccc([N+](=O)[O-])cc4Cl)cc3)nc2n1 | 660
CCCCCn1c(=O)c2ccccc2n(Cc2nc(-c3ccc(F)cc3)no2)c1=O | 1270
COCc1noc(C2CCCCN2CC(=O)Nc2nccs2)n1 (configuration not stated) | 720
CC(C)(C)Sc1ccc2nn(CC(=O)Nc3ccccc3C(F)(F)F)c(=O)n2n1 | 816
CCOc1ccc(NS(=O)(=O)c2cc(-c3c(C)noc3NC(C)=O)ccc2OC)cc1 | 773
Cc1nc2ccn(Cc3ccco3)c(=O)c2cc1C(=O)N1CCN(C)CC1 | 644
Cc1cnc(C(=O)NC2C[C@H]3CC[C@@H](C2)N3C(=O)C2CCCCCC2)cn1 (some centres not stated) | 733
COc1ccc(Cc2noc(Cc3nnc(-c4ccc(Cl)cc4)o3)n2)cc1 | 1010
O=C(c1csc(S(=O)(=O)N2CCC(C(=O)N3CCCC3)CC2)c1)N1CCCCCC1 | 769
Cc1ccccc1-c1nnc(CSc2nnc(NC(=O)C(C)C)s2)o1 | 843
CCN1CCC(CCNC(=O)C2CN(C(=O)c3cccs3)CC23CCCCC3)CC1 (configuration not stated) | 625
CCCNC(=O)N1CCC2(CC1)C(=O)N(C)c1ccccc12 | 708
CCOC(=O)c1nc(N2CCN(c3ccccc3F)CC2)c2c(C)noc2n1 | 1010

Structure (SMILES) | RP-LC retention time [s]
Cc1nc2ccn(Cc3ccco3)c(=O)c2cc1C(=O)NC1CCCC1 | 723
COc1cccc(-c2noc(C3CCCN3C(=O)Nc3ccc(OC)cc3OC)n2)c1 (configuration not stated) | 941
CSc1cccc(NC(=O)Cn2cccc2-c2nc(-c3ccc4c(c3)OCO4)no2)c1 | 1110
Cc1nn(-c2ccc(N3CCCC3)nn2)c(C)c1CCC(=O)N1CCN(c2ncccn2)CC1 | 605
COc1ccc(OC)c(NC(=O)C2c3ccccc3C(=O)N3CCc4ccccc4C23)c1 (configuration not stated) | 903
O=S(=O)(c1cccc(Br)c1)N1CCc2nc(-c3ccccc3)ncc2C1 | 1130
CCc1nnc(-c2cn(CC(=O)NCCCc3ccccc3)c3ccccc23)o1 | 877
O=C(NCCc1csc(-c2ccccc2)n1)[C@H]1CCCN1S(=O)(=O)c1cccc(Cl)c1 | 994
Cc1cccc(-n2c(Cc3cccn3C)nnc2SCC(=O)NCC2CCCO2)c1C (configuration not stated) | 776
COc1ccc(C2C(=O)N(C3CCCCC3)CC(=O)N2Cc2cccs2)cc1OC (configuration not stated) | 882
CCOC(=O)c1c(S(=O)(=O)N2CCC(C(=O)N3CCOCC3)CC2)c(C)n(C)c1C | 674
Cc1cc2c(cc1S(=O)(=O)N1CCCC1C(=O)Nc1ccc(F)c(Cl)c1)OC(C)C(=O)N2 (configuration not stated) | 866
O=C(NCc1ccnc(N2CCSCC2)c1)Nc1ccc(Cl)cc1 | 649
CCOc1ccc(C(=O)N2CCN(c3cnn4c(C5CC5)nnc4c3)CC2)cc1 | 659
Cc1nc(CC(=O)Nc2ccc(Cl)cc2F)cs1 | 838
Cc1ccc(-c2cc3c4nnc(SCC(=O)Nc5cccc(C)c5C)n4ccn3n2)cc1C | 1000
Cc1ccc(Cn2c(=O)n(CCNC(=O)c3ccsc3)c3ncccc32)cc1 | 794
COc1cccc(-c2nc(-c3ccc4c(c3)ncn4CCN3CCCC3)no2)c1 | 653
Cc1noc(-c2nn(C)c3c2CN(C(=O)COc2ccc(Cl)cc2)CC3)n1 | 791

From the METLIN SMRT retention time set (Domingo-Almenara et al. 2019)
